SMILES	melting point
Brc1ccc(NCc2cccs2)cc1	49 to 51 °C
COc1cccc2c1C(=O)CC2	99 to 102 °C
COc1ccc(C(=O)CCl)cc1F	88 to 92 °C
Nc1ccc(Cl)c(-n2nnnc2C2CC2)c1	135 to 137 °C
CC(Oc1ccc(F)cc1)C(=O)NN (centres undefined)	164 to 167 °C
Nc1ccc(S(N)(=O)=O)cc1Cl	156 to 158 °C
O=C(O)CCCc1cc(Cl)sc1Cl	42 to 44 °C
O=c1c2ccccc2[nH]c2ccc(O)cc12	319 to 321 °C
Cc1nc2c(C#N)cnn2c(O)c1CC(=O)O	275 to 277 °C
O=C(O)c1cc2c(s1)CCCCC2	162 to 166 °C
O=C(Cc1ccccn1)c1cccnc1	66 to 68 °C
Cc1noc2nc(-c3cc(F)ccc3F)cc(C(=O)O)c12	237 to 239 °C
COCCNS(=O)(=O)c1ccc(C(=O)O)cc1	254 to 256 °C
N#Cc1ccc(CS(=O)(=O)NN)cc1	142 to 144 °C
Cc1cccc2c(O)c(C(=O)O)cnc12	281 to 283 °C
CC(=O)CC(=O)Nc1cccc(Cl)c1	105 to 107 °C
O=C(O)C1CC(c2ccc(Cl)cc2)C1 (centres undefined)	119 to 121 °C
Cc1nn(C(C)(C)C)c(C)c1C(=O)O	158 to 160 °C
CC(=O)Oc1cccc2ccc(O)nc12	251 to 253 °C
O=[N+]([O-])c1c[nH]nc1-c1ccncc1	216 to 218 °C
N#Cc1ccccc1-c1ccc(CN2CCOCC2)cc1	71 to 73 °C
CCN(C(C)=O)C(C(=O)O)c1ccc(F)c(F)c1 (centres undefined)	205 to 207 °C
O=C(O)c1csc2cncn12	229 to 231 °C
CSc1nc(-c2ccc(F)cc2)nc(C)c1C(=O)O	231 to 233 °C

SMILES	melting point
Clc1nc(CN2CCCCC2)nc2sc3c(c12)CCCC3	51 to 53 °C
Cc1ccc(C(=O)N2CCCC(C(=O)O)C2)cc1 (centres undefined)	146 to 148 °C
O=C(O)c1ccc(S(=O)(=O)Nc2ccccc2F)cc1	266 to 268 °C
O=C(O)C(c1ccccc1)N1CCCCC1=O (centres undefined)	148 to 150 °C
Cc1ncncc1C(=O)O	174 to 176 °C
O=C(CCl)Nc1ccc(-c2ccccc2)cc1	121 to 123 °C
Cc1cc(C(C)(C)C)cc(C)c1CCNC(=O)CCl	114 to 116 °C
Cn1c(=O)n(C)c2cc(N)ccc21	148 to 150 °C
O=C(CCl)Nc1cc(Cl)ccc1C(=O)O	152 to 154 °C
Cc1ccc(-n2nc(C)c(CC(=O)O)c2C)cc1Cl	146 to 148 °C
O=C(O)Cn1cccnc1=O	211 to 213 °C
Cc1cc(N)n(C)c(=O)c1	192 to 194 °C
CC(C)c1c(C(=O)O)cnn1Cc1ccccc1	153 to 155 °C
CCN(CC)C(=O)c1ccc(NC(=O)CCl)cc1	115 to 117 °C
O=C(CCl)NC1CCCC1	73 to 75 °C
O=C(CN1CCNCC1)NCc1ccccc1	49 to 51 °C
CN(CC(=O)O)C(=O)c1ccc(Br)o1	110 to 112 °C
O=C(CCl)NCCOc1ccccc1	67 to 69 °C
CCN(CC)S(=O)(=O)c1cccc(C(=O)O)c1	164 to 166 °C
COc1cn(-c2ccccc2)nc1C(=O)O	144 to 148 °C
NC(=NO)c1ccccc1CN1CCC(O)CC1	137 to 139 °C
CC1=NS(=O)(=O)NC(C)=C1CC(=O)O	185 to 187 °C
O=C(O)[C@@H]1CC(O)CN1C(=O)OCC1c2ccccc2-c2ccccc21 (some centres undefined)	189 to 191 °C
O=C1NC(=O)N(C2CCCCC2)C1=O	187 to 189 °C

SMILES	melting point
c1ccc(-c2nnc3n2CCNC3)cc1	159 to 161 °C
N#CC(N)c1ccc2ccccc2c1 (centres undefined)	116 to 118 °C
O=C(O)c1cccc(N2CCCNC2=O)c1	277 to 279 °C
C=CCOc1ccc(C(=O)c2ccccc2)c(O)c1	67 to 70 °C
O=C(O)c1ccccc1SCc1ccsc1	213 to 215 °C
OCc1cnc(-c2ccccc2)[nH]1	154 to 156 °C
COCCNS(=O)(=O)c1ccc(C#N)cc1	88 to 90 °C
O=C(Nc1sc2c(c1C(=O)O)CCCC2)c1cccnc1	239 to 241 °C
NS(=O)(=O)c1ccc2c(c1)CCN2	162 to 166 °C
COC1CCN(C(=O)Nc2cccc(C(=O)O)c2)CC1	196 to 198 °C
NC(=O)c1ccn(-c2ccccc2)n1	149 to 151 °C
Cc1cc([N+](=O)[O-])c(C)cc1C#N	119 to 121 °C
COCCCOc1cc(C)ccc1C#N	67 to 69 °C
Nc1ccc2c(c1)CCN2C(=O)c1cccnc1	181 to 183 °C
Cc1ccccc1-n1c(C)cc(C(=O)CCl)c1C	65 to 67 °C
O=C(O)CCc1ccnc2ccccc12	197 to 199 °C
O=C(O)c1ccc(C(F)F)cc1	205 to 207 °C
CCOC(=O)Cc1nc2cc(C)c(C)cc2[nH]1	169 to 171 °C
Brc1cn2ccnc2c(Br)n1	152 to 154 °C
O=C(O)C1CCN(C(=O)c2ccco2)CC1	127 to 129 °C
N#Cc1ccc(C(Cl)C(N)=O)cc1 (centres undefined)	114 to 116 °C
CC(C)(C)Oc1ccc(C(=O)O)cc1	139 to 141 °C
CCNS(=O)(=O)c1cc(F)ccc1F	68 to 70 °C
CCc1ncc(N)cn1	125 to 127 °C

SMILES	melting point
COc1ccc(C=O)cc1SC	44 to 46 °C
CN1CCc2ccc(C(=O)O)cc21	165 to 167 °C
O=C(O)CNC(=O)c1ccc(Br)s1	177 to 179 °C
Cn1ncnc1-c1cccc(N)c1	93 to 95 °C
O=C(O)c1ncoc1C1CCCO1 (centres undefined)	125 to 127 °C
CC(C(=O)O)c1ccc(N(C)C)cc1 (centres undefined)	128 to 130 °C
Nc1nc(CCl)nc2oc(-c3ccccc3)c(-c3ccccc3)c12	201 to 203 °C
N#Cc1ccc(CSc2ccccc2C(=O)O)cc1	208 to 210 °C
CC(Oc1cccnc1N)c1ccccc1 (centres undefined)	83 to 85 °C
O=C(O)C1CCCN(C(=O)N2CCc3sccc3C2)C1 (centres undefined)	66 to 68 °C
NS(=O)(=O)N1CCOc2ccccc21	135 to 137 °C
N#Cc1ccc(Oc2cccc(N)c2)nc1	112 to 114 °C
NCC(O)COc1ccc2c(c1)CCC(=O)N2 (centres undefined)	103 to 105 °C
CCCCOc1cc(C=O)ccc1OC	39 to 41 °C
CSCc1c(C(=O)O)oc2ccccc12	100 to 102 °C
CCCc1cc(=O)[nH]c(-c2ccccc2)n1	149 to 151 °C
CC(C)(C#N)C(=O)O	54 to 56 °C
Nc1ccccc1C(=O)Nc1ccc(F)cc1Cl	103 to 105 °C
O=C(O)CCNC(=O)Cc1ccccc1	109 to 111 °C
COC(=O)CCCOc1ccc(N)c2ccccc12	69 to 71 °C
OCc1nnc(-c2ccccc2)o1	129 to 131 °C
O=C(O)C1CCN(c2ccc(S(=O)(=O)N3CCOCC3)cc2[N+](=O)[O-])CC1	225 to 227 °C
CCN(CC)S(=O)(=O)c1ccc2nc(O)cc(C(=O)O)c2c1	310 to 312 °C
NS(=O)(=O)c1nc2ccccc2[nH]1	215 to 217 °C

SMILES	melting point
Nc1nc2c(F)cc(F)cc2s1	197 to 199 °C
NC(=O)C1CCC(O)CC1 (centres undefined)	204 to 206 °C
Cc1ccc(NC2=NC(C)(C)CS2)cc1	164 to 166 °C
O=C(CCl)NCC(=O)N1CCCC1	125 to 127 °C
CN(CCO)c1ccc([N+](=O)[O-])cc1	97 to 99 °C
Cn1nc(C(F)(F)F)c(C(=O)O)c1C(F)(F)Cl	119 to 121 °C
c1ccc(COc2ccc3ncccc3c2)cc1	73 to 75 °C
O=C(O)/C=C/c1ccc(S(=O)(=O)NC2CC2)cc1	263 to 265 °C
Cc1cc(C2CCCNC2)n[nH]1 (centres undefined)	104 to 106 °C
O=C1c2ccccc2C(=O)N1CCCc1nn[nH]n1	79 to 81 °C
CCOC(=O)c1c(N)sc(C(=O)OCCOC)c1C	118 to 120 °C
CCc1nnn[nH]1	93 to 95 °C
COC(=O)c1cc([N+](=O)[O-])ccc1N	163 to 165 °C
O=C(O)C1CCCN1S(=O)(=O)c1ccc(Br)cc1 (centres undefined)	103 to 105 °C
FC(F)(F)CN1CCNc2ccccc21	62 to 64 °C
Cc1nn(Cc2ccc(F)cc2)c2[nH]nc(N)c12	140 to 142 °C
CCC(CC)n1nc(C(=O)O)cc1C	110 to 112 °C
NNc1ccc(Cl)nc1	131 to 133 °C
Nc1ccc(S(=O)(=O)Nc2cccc(C(F)(F)F)c2)cc1	113 to 115 °C
Cc1cc(C(=O)O)c(C)s1	114 to 116 °C
Cc1cccc(C(=O)N2CCSCC2)c1N	113 to 115 °C
CC(C)(C)n1cc(N)cn1	56 to 58 °C
O=C(O)CN1CCCC1=O	125 to 135 °C
Cc1ccc(N)cc1S(=O)(=O)NC(C)(C)C	131 to 133 °C

SMILES	melting point
OCc1sc2ccccc2c1Cl	90 to 92 °C
O=C(O)c1c(C2CC2)nc2sccn12	163 to 165 °C
O=S(=O)(Cl)c1cc(Br)ccc1F	68 to 70 °C
Fc1cc(CCl)c2c(c1)COC(c1ccccc1)O2 (centres undefined)	61 to 65 °C
O=C(O)c1ccc(-n2cncn2)nc1	341 to 343 °C
Nc1ccc(C(=O)O)nc1Br	206 to 208 °C
O=C(O)c1ccc(CN2CCCC2=O)cc1	151 to 153 °C
CNCCCc1cc(-c2ccccc2)n[nH]1	98 to 100 °C
CC1CNc2cc(Cl)ccc2O1 (centres undefined)	75 to 77 °C
Cc1ccc2cc(CCl)c(Cl)nc2c1C	109 to 111 °C
NC(=O)C=C1CCCC1	141 to 143 °C
Cc1cc(S(=O)(=O)Cl)ccc1F	36 to 38 °C
Nc1c(-c2ccccc2)ncn1C1CC1	148 to 150 °C
COc1ccc(N)cc1S(=O)(=O)Nc1ccc(Cl)cc1	105 to 107 °C
O=C1COc2cc(Br)c(Cl)cc2N1	281 to 283 °C
O=C(O)c1ccc([N+](=O)[O-])cc1Br	164 to 166 °C
O=C(O)Cn1nnc(-c2cccs2)n1	220 to 222 °C
CN(C)c1ccnc(Cl)n1	79 to 81 °C
N#CC1CSCCS1 (centres undefined)	76 to 78 °C
NS(=O)(=O)c1cccc(NC(=O)c2ccccc2Cl)c1	93 to 96 °C
N#Cc1ccc([N+](=O)[O-])cc1F	69 to 71 °C
O=C1C=C2NCCC=C2O1	109 to 111 °C
COCCNC(=O)C1CCNCC1	158 to 160 °C
COc1cccc(-c2noc(SCC(=O)O)n2)c1	103 to 105 °C

Reference: a melting point compilation (Tetko et al.)
